Legend:
[1] = system: Klebsiella pneumoniae strain 43816; experiment: Minimal inhibitory concentration (MIC) method, growth of Klebsiella pneumoniae in tryptic soy broth; type: cell-based
Procedure: FIG. 3 show CFU of Klebsiella pneumoniae cultured in tryptic soy broth at 37° C. for 24 h with 0, 10 nM, 100 nM, 1 μM, and 10 μM CT474 dissolved in 1% Dimethyl sulfoxide (DMSO).
Microorganisms: Klebsiella pneumoniae strain 43816 (American Type Culture Collection, Manassas, Va.) was used for the studies.
The minimal inhibitory concentration (MIC) method was used to characterize the in vitro efficacy of the compound as shown in the FIG. 3. Briefly, Klebsiella pneumoniae strain 43816 (American Type Culture Collection, Manassas, Va.) was grown overnight at 37° C. to mid-log phase in tryptic soy broth. CT474 was initially suspended with DMSO, then diluted in the culture broth with final concentrations of CT474 at 0 nM (1% DMSO alone), 10 nM, 100 nM, 1 μM, and 10 μM with 10,000 CFU Klebsiella pneumoniae in 10 mL tryptic soy broth. OD600 was measured 24 h later, then the CFU was determined using a standard curve.
Statistical calculations were performed using from repeated measures. Analysis of variation (ANOVA) was used to determine differences between groups.

[2] = system: murine lung exposed to bleomycin; experiment: Treatment of bleomycin-exposed mice with CT474 (post-disease modeling of lung fibrosis); type: in vivo, mice (C57B6 WT); details: treated from days 7 to 13, vehicle vs CT474, N=13-15 per group
Excerpt: “Vehicle” as used herein is the substance used as a carrier for the pharmaceutical agent to include aqueous solutions or oils. Oils are derived from petroleum, animal, vegetable or synthetic origin, such as peanut oil. In FIGS. 5-7 signify “veh” signify vehicle. Flow cytometry of peripheral blood buffy coat after being treated with either vehicle or CT474. Pre-mortem Pressure-Volume curve using Sireq Flexivent in murine lung exposed to bleomycin then treated from days 7 to 13 with vehicle or CT474 is shown in FIG. 6. Soluble collagen measured by Sircol assay in murine lung (C57B6 WT) exposed to bleomycin then treated from days 7 to 13 with vehicle (n=15) or […] (n=13) is shown in FIG. 7. Statistical calculations were performed using from repeated measures. Analysis of variation (ANOVA) was used to determine differences between groups.

Compound: CO[C@H]1C[C@@H](C)C/C(C)=C/[C@@H](C/C=C/c2cc3ccccc3c3ccccc23)C(=O)C[C@H](O)[C@@H](C)[C@@H](/C(C)=C/[C@@H]2CC[C@@H](O)[C@H](OC)C2)OC(=O)[C@@H]2CCCCN2C(=O)C(=O)[C@]2(O)O[C@H]1[C@@H](OC)C[C@H]2C [CT474]
- effect on the growth of Klebsiella pneumoniae (CFU determined from OD600) ([1]; 10 nM, 100 nM, 1 μM, 10 μM CT474 in 1% DMSO, tryptic soy broth, 37° C., 24 h, 10,000 CFU inoculum): increasingly suppressive effects
- colony forming units (CFU) of Klebsiella pneumoniae ([1]; increase in concentration of CT474 from 10 nM upto 1 μM): consecutive decrease
- fibrotic lung damage [2]: significant reduction
